Read-outs that look alike come from different tables or passages of the source.
What was measured:
Type in all cases: cell-based
[1] = target: T1, FGF-2 (Homo sapiens, UniProt P09038); experiment: FGF-2 induced sprouting of HUVEC, spheroid-based cellular angiogenesis assay; settings: FGF-2 25 ng/mL preincubated with compound, 24 h
T1 construct: purchased Peprotech 100-18C
Outline: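 Compound (final 100 down to 1.56×10^−6 M) was mixed with growth factor (final 25 ng/mL) for 30 min at 37°C, then added onto collagen-embedded 400-cell HUVEC spheroids.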

[2] = system: IL-17A; experiment: Cytokine release after LPS induction on human whole blood: IL-17A
Procedure: (§1) Aim of this in vitro method is to assess compounds effects on release of a panel of cytokines from whole blood following lipopolysaccharide (LPS) induced inflammatory reaction. Whole blood was incubated with compounds for 1 h prior to LPS induction. Cytokine levels in blood were measured using a multiplex FACS-based panel.
(§2) IC50 values determined for the tested compounds expressed in microM [μM] and the values for the inhibition of cytokines were listed for each compound.
(§3) Effect on cytokines release after LPS induction was performed on the compounds dissolved in DMSO or H2O to reach 10-fold concentrated stock solutions and dissolved in culture media.
(§4) Test system: Whole blood was removed from a single donor (into lithium heparin coated tubes; BD Vacutainer; 367886) and diluted 1:5 with RPMI 1640 (Thermo Fisher, 61870036). Within 30 minutes of sampling, blood was incubated with compounds for 1 h prior to LPS stimulation (O111:B4—Sigma L4391; 10 ng/ml final concentration). Stimulation continued under standard cell culture conditions (37° C. with 5% CO2) overnight (18 h), after which plates were centrifuged and supernatant removed and frozen at −80° C. until used for analyses.
(§5) Dilution of test compounds: 10×concentrated solutions (concerning to the final assay concentrations) of each test compound were prepared with the appropriate solvent (in DMSO or in water). These 10× compound solutions (10 μl) were then added to 90 μl pre-diluted whole blood (whole blood: RPMI1640, 1:5) resulting in the final assay concentration.
(§6) Test method: Diluted whole blood (80 μl) was pre-incubated with compounds (10 μl) to give final assay concentrations of 100, 30, 10, 3, 1, 0.3 and 0.1×10^−6M. Blood was incubated at 37° C. with 5% CO2 for 1 h. LPS was diluted in cell culture media to a concentration of […]; 10 μl was added to the whole blood to give a final concentration of 10 ng/ml. Plates were incubated at 37° C. for 18 h. Plates were centrifuged at 3,000 RPM for 5 minutes at 4° C. and supernatant removed and frozen at −80° C. until FACS analysis was carried out.
(§7) Cytokine release was measured using a custom multiplex system (ELISA Genie) according to manufacturers instructions. Prepared samples were run on an Attune NxT flow cytometer (Thermo Fisher).
(§8) Quantification of cytokine release inhibition: known concentration standards were run as part of the cytokine panel to allow quantification of each cytokine concentration in each sample. This was carried out using FCAP Array v3.0 software.
(§9) Results: The dose response relationship on cytokine release following LPS induction of inflammatory response in whole blood was assessed for all compounds. IC50 values were determined for each compound for a panel of cytokines (GM-CSF, IFN-gamma, IL-1beta, IL-2, IL-4, IL-5, IL-6, IL-8, IL-9, IL-10, IL-12p40, IL-13, IL-17A, IL-17F, IL-18, IL-21, IL-22, IL-33, TGF-beta, TNF-alpha, TNF-beta).

[3] = system: IL-18; experiment: Cytokine release after LPS induction on human whole blood: IL-18
Procedure: as §1, §2, §3, §4, §5, §6, §7, §8, §9

[4] = Homo sapiens, LPS 10 ng/ml, 18 h, read-out: Whole Blood: IL-17A IC50
[5] = human whole blood, inhibition of LPS induced inflammation, read-out: IC50 IL-17A
[6] = Homo sapiens, LPS 10 ng/ml, 18 h, read-out: Whole Blood: IL-18 IC50
[7] = human whole blood, inhibition of LPS induced inflammation, read-out: IC50 IL-18

T1 sequence (P09038 134-288): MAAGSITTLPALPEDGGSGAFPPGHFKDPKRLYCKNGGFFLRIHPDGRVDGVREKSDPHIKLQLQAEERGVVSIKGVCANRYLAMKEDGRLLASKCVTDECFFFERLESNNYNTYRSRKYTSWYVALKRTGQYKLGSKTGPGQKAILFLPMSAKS

Row | Compound | IC50 [1] | IC50 [2, 4] | IC50 [2, 5] | IC50 [3, 6] | IC50 [3, 7] | IC50 ([2]; Homo sapiens, 18 h, read-out: Whole Blood: IL-17A IC50) | IC50 ([2]; Homo sapiens, read-out: IC50 IL-17A) | IC50 ([3]; Homo sapiens, 18 h, read-out: Whole Blood: IL-18 IC50) | IC50 ([3]; Homo sapiens, read-out: IC50 IL-18)
1 | O=C(O)c1cc(NC(=O)c2cc(O)c(C(=O)O)cc2O)cc(NC(=O)c2cc(O)c(C(=O)O)cc2O)c1 [Ib-010a, 3,5-bis(2,5-dihydroxy-4-carboxybenzoylamino)benzoic acid] | 3.8 µM | 0.42 µM | 0.42 µM | > 100 µM | 100 µM | – | – | – | –
2 | CC(=O)N(Cc1cc(O)c(C(=O)O)cc1O)Cc1cc(O)c(C(=O)O)cc1O [IIIc-057a, N,N-Bis(4-carboxy-2,5-dihydroxyphenylmethyl)acetamide] | 77 µM | 1.32 µM | 1.32 µM | > 100 µM | 100 µM | – | – | – | –
3 | O=C(O)c1cc(NC(=O)c2cc(O)c(C(=O)Nc3ccc(O)c(C(=O)O)c3)cc2O)ccc1O [Ic-007a, 5-(4-(3-carboxy-4-hydroxyphenylaminocarbonyl)-2,5-dihydroxybenzamido)-2-hydroxy benzoic acid] | – | 0.04 µM | 0.04 µM | > 100 µM | 100 µM | – | – | – | –
4 | O=C(Nc1ccccc1-c1nnn[nH]1)c1cc(O)c(C(=O)Nc2ccccc2-c2nnn[nH]2)cc1O [Ic-001aTz2, N1,N4-bis(2-(1H-tetrazol-5-yl)phenyl)-2,5-dihydroxyterephthalamide] | 70 µM | 0.31 µM | – | 33.9 µM | – | – | – | – | –
5 | O=C(O)c1ccccc1CNC(=O)c1cc(O)cc(C(=O)O)c1O [IIa-053a, 3-(2-Carboxyphenylmethylaminocarbonyl)-2,5-dihydroxybenzoic acid] | 18 µM | > 100 µM | 100 µM | > 100 µM | 100 µM | – | – | – | –
6 | O=C(O)c1cc(O)cc(CS(=O)(=O)Cc2cc(O)cc(C(=O)O)c2O)c1O [IVc-059a, 3-((2,5-Dihydroxy-3-carboxyphenyl)methylsulfonylmethyl)-2,5-dihydroxybenzoic acid] | 2.7 µM | 0.16 µM | 0.16 µM | > 100 µM | 100 µM | – | – | – | –
7 | O=C(O)c1cc(NC(=O)c2cc(O)c(C(=O)Nc3ccccc3-c3nnn[nH]3)cc2O)ccc1O [Ic-001a-Tz/004a, 5-(4-(2-(1H-tetrazol-5-yl)phenylaminocarbonyl)-2,5-dihydroxybenzamido)-2-hydroxy benzoic acid] | 87 µM | – | – | – | – | 0.02 µM | 0.02 µM | 46.6 µM | 46.6 µM
8 | O=C(O)c1cc(NC(=O)c2cc(O)cc(C(=O)Nc3ccc(O)c(C(=O)O)c3)c2O)ccc1O [IIc-007a, 5-(3-(3-carboxy-4-hydroxyphenylaminocarbonyl)-2,5-dihydroxybenzamido)-2-hydroxy benzoic acid] | 91 µM | 0.01 µM | 0.01 µM | > 100 µM | 100 µM | – | – | – | –
9 | O=C(O)Cc1cc(O)c(C(=O)Nc2ccccc2-c2nnn[nH]2)cc1O [IIIa-001aTz] | 14 µM | 0.17 µM | 0.17 µM | 27.7 µM | 27.7 µM | – | – | – | –
10 | CCOC(=O)c1cc(NC(=O)c2cc(O)c(C(=O)OCC)cc2O)cc(NC(=O)c2cc(O)c(C(=O)OCC)cc2O)c1 [Ib-010a-E3, ethyl 3,5-bis(2,5-dihydroxy-4-ethoxycarbonylbenzoylamino)benzoate] | – | 0.52 µM | 0.52 µM | > 100 µM | 100 µM | – | – | – | –

The next lines start with results.

Row | IC50 [1] | IC50 [2, 4] | IC50 [2, 5] | IC50 [3, 6] | IC50 [3, 7] | Compound | IC50 ([2]; Homo sapiens, 18 h, read-out: Whole Blood: IL-17A IC50) | IC50 ([2]; Homo sapiens, read-out: IC50 IL-17A) | IC50 ([3]; Homo sapiens, 18 h, read-out: Whole Blood: IL-18 IC50) | IC50 ([3]; Homo sapiens, read-out: IC50 IL-18)
11 | ≥ 200 µM | 0.02 µM | 0.02 µM | > 100 µM | 100 µM | COC(=O)c1cc(OC(C)=O)cc(CS(=O)(=O)Cc2cc(OC(C)=O)cc(C(=O)OC)c2OC(C)=O)c1OC(C)=O [IVc-059a-E2-A4] | – | – | – | –
12 | 45 µM | 0.07 µM | 0.07 µM | > 100 µM | 100 µM | O=C(O)c1cc(O)c(C(=O)Nc2ccc(-c3nnn[nH]3)cc2)cc1O [Ia-003a-Tz, 4-(4-(1H-tetrazol-5-yl)phenyl-aminocarbonyl)-2,5-dihydroxybenzoic acid] | – | – | – | –
13 | 31 µM | 0.15 µM | 0.15 µM | > 100 µM | 100 µM | O=C(O)Cc1cc(O)c(C(=O)Nc2c(C(=O)O)cccc2C(=O)O)cc1O [IIIa-013a, 2-(4-(carboxymethyl)-2,5-dihydroxybenzamido)isophthalic acid] | – | – | – | –
14 | 7.6 µM | 0.04 µM | 0.04 µM | 32.4 µM | 32.4 µM | O=C(O)c1cc(O)c(CN(Cc2cc(O)c(C(=O)O)cc2O)Cc2cc(O)c(C(=O)O)cc2O)cc1O [IIIc-061a, Tris(4-carboxy-2,5-dihydroxyphenylmethyl)amine] | – | – | – | –
15 | 9.3 µM | 0.05 µM | 0.05 µM | > 100 µM | 100 µM | O=C(O)c1cc(NC(=O)c2cc(O)c(C(=O)O)cc2O)cc(C(=O)O)c1 [Ia-015a, 5-(4-carboxy-2,5-dihydroxybenzamido)isophthalic acid] | – | – | – | –
16 | 4.9 µM | 0.1 µM | 0.1 µM | > 100 µM | 100 µM | O=C(O)c1cc(O)cc(CSCc2cc(O)cc(C(=O)O)c2O)c1O [IVc-058a, 3-((2,5-Dihydroxy-3-carboxyphenyl)methylthiomethyl)-2,5-dihydroxybenzoic acid] | – | – | – | –
17 | 13 µM | 0.09 µM | 0.09 µM | > 100 µM | 100 µM | O=C(O)c1cc(O)c(C(=O)Nc2ccccc2S(=O)(=O)O)cc1O [Ia-001c, 2,5-dihydroxy-4-(2-sulfophenylaminocarbonyl)benzoic acid] | – | – | – | –
18 | 20 µM | 0.11 µM | 0.11 µM | > 100 µM | 100 µM | O=C(O)c1cc(O)c(C(=O)Nc2ccccc2-c2nnn[nH]2)cc1O [Ia-001a-Tz, 4-(2-(1H-tetrazol-5-yl)phenyl-aminocarbonyl)-2,5-dihydroxybenzoic acid] | – | – | – | –
19 | 39 µM | 0.1 µM | 0.1 µM | > 100 µM | 100 µM | O=C(O)c1cc(O)c(C(=O)Nc2ccccc2C(=O)O)cc1O [Ia-001a, 4-(2-carboxyphenylaminocarbonyl)-2,5-dihydroxybenzoic acid] | – | – | – | –
20 | – | 0.001 µM | 0.001 µM | 2.95 µM | 2.95 µM | O=C(O)c1cc(O)ccc1NC(=O)c1cc(O)cc(C(=O)Nc2ccc(O)cc2C(=O)O)c1O [IIc-009a, 2-(3-(2-carboxy-4-hydroxyphenylaminocarbonyl)-2,5-dihydroxybenzamido)-5-hydroxyl benzoic acid] | – | – | – | –
